The NIST ThermoML archive (doi:10.1021/je030177j)

Test: mn = molality of the nth substance listed, in mol/kg
Conditions: Liquid, Capillary tube (Ostwald / Ubbelohde) method

O=S(=O)([O-])[O-].[Li+].[Li+] [lithium sulfate] + O
viscosity [mPa·s]
Conditions | 100 kPa | 10000 kPa | 20000 kPa | 30000 kPa
298.15 K, m1 = 0.1 | 0.939 | – | – | –
298.15 K, m1 = 0.28 | 1.037 | – | – | –
298.15 K, m1 = 0.56 | 1.195 | 1.195 | 1.195 | 1.195
298.15 K, m1 = 0.885 | 1.411 | – | – | –
298.25 K, m1 = 0.28 | – | 1.035 | 1.035 | 1.036
298.35 K, m1 = 0.1 | – | 0.936 | 0.9361 | 0.9363
298.45 K, m1 = 0.885 | – | 1.404 | 1.404 | 1.404
303.15 K, m1 = 0.1 | 0.862 | – | – | –
303.15 K, m1 = 0.28 | 0.951 | – | – | –
303.15 K, m1 = 0.56 | 1.096 | – | – | –
303.15 K, m1 = 0.885 | 1.294 | – | – | –
306.19 K, m1 = 0.56 | – | 1.013 | 1.016 | 1.018
307.35 K, m1 = 0.885 | – | 1.17 | 1.173 | 1.176
307.93 K, m1 = 0.28 | – | 0.8517 | 0.8546 | 0.857
308.52 K, m1 = 0.1 | – | 0.7647 | 0.7659 | 0.7682
311.24 K, m1 = 0.56 | – | 0.9141 | 0.9168 | 0.9192
312.27 K, m1 = 0.28 | – | 0.778 | 0.7812 | 0.784
313.15 K, m1 = 0.1 | 0.707 | – | – | –
313.15 K, m1 = 0.28 | 0.778 | – | – | –
313.15 K, m1 = 0.56 | 0.891 | – | – | –
313.15 K, m1 = 0.885 | 1.054 | – | – | –
313.67 K, m1 = 0.1 | – | 0.6899 | 0.6927 | 0.6955
314.12 K, m1 = 0.885 | – | 1.016 | 1.019 | 1.023
321.55 K, m1 = 0.28 | – | 0.6508 | 0.6539 | 0.6569
322.35 K, m1 = 0.56 | – | 0.7352 | 0.7388 | 0.7422
322.55 K, m1 = 0.885 | – | 0.8649 | 0.8691 | 0.8731
323.15 K, m1 = 0.1 | 0.578 | – | – | –
323.15 K, m1 = 0.28 | 0.63 | – | – | –
323.15 K, m1 = 0.56 | 0.722 | – | – | –
323.15 K, m1 = 0.885 | 0.853 | – | – | –
324.55 K, m1 = 0.1 | – | 0.566 | 0.5689 | 0.5716
329.44 K, m1 = 0.28 | – | 0.567 | 0.57 | 0.5731
330.24 K, m1 = 0.885 | – | 0.7558 | 0.7598 | 0.7639
331.27 K, m1 = 0.56 | – | 0.6319 | 0.6354 | 0.6372
331.86 K, m1 = 0.1 | – | 0.5013 | 0.5035 | 0.5061
333.15 K, m1 = 0.1 | 0.49 | – | – | –
333.15 K, m1 = 0.28 | 0.532 | – | – | –
333.15 K, m1 = 0.56 | 0.61 | – | – | –
333.15 K, m1 = 0.885 | 0.718 | – | – | –
338.71 K, m1 = 0.28 | – | 0.4914 | 0.4942 | 0.4979
339.74 K, m1 = 0.1 | – | 0.4463 | 0.4491 | 0.452
340.72 K, m1 = 0.885 | – | 0.6414 | 0.6452 | 0.6494
340.73 K, m1 = 0.56 | – | 0.5456 | 0.5484 | 0.5514
343.15 K, m1 = 0.1 | 0.429 | – | – | –
343.15 K, m1 = 0.28 | 0.462 | – | – | –
343.15 K, m1 = 0.56 | 0.53 | – | – | –
343.15 K, m1 = 0.885 | 0.624 | – | – | –
343.35 K, m1 = 0.28 | – | 0.4594 | 0.4623 | 0.4653
347.05 K, m1 = 0.1 | – | 0.4034 | 0.4061 | 0.4088
348.15 K, m1 = 0.1 | 0.401 | – | – | –
348.15 K, m1 = 0.28 | 0.433 | – | – | –
348.15 K, m1 = 0.56 | 0.495 | – | – | –
348.15 K, m1 = 0.885 | 0.582 | – | – | –
348.95 K, m1 = 0.885 | – | 0.5714 | 0.5753 | 0.5792
349.55 K, m1 = 0.56 | – | 0.4831 | 0.4864 | 0.4897
351.04 K, m1 = 0.28 | – | 0.415 | 0.4183 | 0.4215
356.84 K, m1 = 0.1 | – | 0.3566 | 0.359 | 0.3621
358.15 K, m1 = 0.1 | 0.355 | – | – | –
358.15 K, m1 = 0.28 | 0.381 | – | – | –
358.15 K, m1 = 0.56 | 0.437 | – | – | –
358.15 K, m1 = 0.885 | 0.511 | – | – | –
359.14 K, m1 = 0.885 | – | 0.4999 | 0.5041 | 0.508
361.24 K, m1 = 0.56 | – | 0.4168 | 0.4191 | 0.4222
362.74 K, m1 = 0.28 | – | 0.3601 | 0.363 | 0.3662
365.04 K, m1 = 0.1 | – | 0.3241 | 0.3265 | 0.3291
369.72 K, m1 = 0.885 | – | 0.4415 | 0.4452 | 0.4495
372.13 K, m1 = 0.56 | – | 0.3691 | 0.3721 | 0.3752
375.75 K, m1 = 0.28 | – | 0.3127 | 0.3153 | 0.3181
378.85 K, m1 = 0.1 | – | 0.2812 | 0.2836 | 0.2862
379.05 K, m1 = 0.885 | – | 0.3993 | 0.4028 | 0.4065
383.06 K, m1 = 0.28 | – | 0.2916 | 0.2942 | 0.2974
384.05 K, m1 = 0.56 | – | 0.3274 | 0.3304 | 0.3335
384.27 K, m1 = 0.885 | – | 0.3782 | 0.382 | 0.3861
389.16 K, m1 = 0.1 | – | 0.2554 | 0.2577 | 0.2599
390.35 K, m1 = 0.56 | – | 0.3089 | 0.3124 | 0.3154
390.42 K, m1 = 0.28 | – | 0.2721 | 0.275 | 0.2784
390.72 K, m1 = 0.885 | – | 0.355 | 0.3591 | 0.3633
397.35 K, m1 = 0.885 | – | 0.3337 | 0.3371 | 0.3406
399.95 K, m1 = 0.28 | – | 0.2502 | 0.2528 | 0.2555
400.84 K, m1 = 0.1 | – | 0.2306 | 0.2331 | 0.236
401.73 K, m1 = 0.56 | – | 0.2797 | 0.2827 | 0.2855
405.24 K, m1 = 0.885 | – | 0.3115 | 0.3152 | 0.3194
409.36 K, m1 = 0.28 | – | 0.2314 | 0.234 | 0.2369
410.95 K, m1 = 0.1 | – | 0.2126 | 0.215 | 0.2192
411.05 K, m1 = 0.56 | – | 0.2584 | 0.2613 | 0.2644
415.13 K, m1 = 0.56 | – | 0.2502 | 0.2531 | 0.2564
415.76 K, m1 = 0.885 | – | 0.286 | 0.2901 | –
